Reference: US5468486A, “Vaccine containing a protein alkaloid conjugate for the treatment of fescue toxicosis” (priority 1994, dated 1995)

System: antiserum produced against the ergonovine KLH conjugate
Experiment: Competitive ELISA
Type: binding, rabbit
Settings: for IC50 / Concentration (ng/ml) of 50% A (A50): predicted value for 50% maximal absorbance, linear regression, antiserum 1:1000, HSA-ergonovine coated plates; for IC50: read-out: Concentration (μM) of 50% A; for Cross Reactivity (%): relative to ergonovine
Description: Antiserum preparation: Three female New Zealand white rabbits were immunized with the HSA-ergonovine conjugate and two with the KLH-ergonovine conjugate. Initially, each rabbit was injected with 1 mg of the respective conjugate in 1 ml of phosphate buffered saline that had been emulsified with an equal amount of Freund's complete adjuvant. Booster injections of 0.2 mg of conjugate per rabbit, emulsified with Freund's incomplete adjuvant, were given at 5 and 10 weeks after the first injections. The rabbits were bled 8 and 16 days after each booster injection. Serum was collected after two cycles of low speed centrifugation. Serum from each rabbit was pooled before testing in the competitive enzyme linked immunosorbent assay (ELISA).
Competitive ELISA: Duplicate polystyrene ELISA plates were numbered and rinsed once with distilled water. The HSA-ergonovine conjugate [[…] in carbonate coating buffer (0.5μsodium carbonate, pH 9.6)] was pipetted into each well ([…]). After 2H at 30° C. the plates were washed 4 times quickly with physiologically buffered saline (PBS) Tween (0.02M phosphate, 0.15M NaCl, 3 mM KC1+0.05% TWEEN 20, pH 7.3). All subsequent rinse steps were done with PBS-Tween. Serial dilutions were made of […] compounds used in the competitive assay. All dilutions were made in PBS-Tween. These compounds and their initial concentrations were: agroclavine 0.5 mM, ergocryptine at 100 μM, unconjugated ergonovine at 1 μM, ergotamine at 100 μM, ergovaline at 10 μM, lysergol at 10 mM, dihydroergotamine at 200 μM and IAA at 1 mM. After placing 100 μl of each dilution in duplicate wells, an additional 100 μl of antiserum, produced against the ergonovine KLH conjugate, was added to each well at a dilution of 1:1000 and mixed. The plates were incubated for 2 H at 30° C. and again rinsed 4 times quickly. Protein-A alkaline phosphatase (0.5 μg/ml in PBS-Tween) was placed in wells (200 μl/well) and incubated for 2 H at 30° C. The plates were again rinsed 4 times. Substrate, SIGMA 104® phosphatase substrate (5 mg/ml), in 10% diethanolamine, pH 9.6 was added to each well (150 μl/well). The reaction was stopped after 30 min. with 3M NaOH (75 μl/well). The plates were read on a DYNATECH MINIREADER II® reader. Mean values were calculated from duplicate wells per plate and duplicate plates were averaged. From these values a percent maximal absorbance level was calculated.

Structure (SMILES)	IC50	Concentration (ng/ml) of 50% A (A50)	Concentration (ng/ml) of 50% A (A50) (listed as ergocrytine)	Cross Reactivity (%)	Cross Reactivity (%) (listed as ergocrytine)	Concentration (ng/ml) of 50% A (A50) (listed as Ergovaline)	Cross Reactivity (%) (listed as Ergovaline)	Cross Reactivity (%) (listed as Lysergol)
CC1=C[C@@H]2c3cccc4[nH]cc(c34)C[C@H]2N(C)C1 [agroclavine]	3.2 µM							
CN1C[C@H](C(=O)N[C@]2(C)O[C@@]3(O)[C@@H]4CCCN4C(=O)[C@H](Cc4ccccc4)N3C2=O)C[C@@H]2c3cccc4[nH]cc(c34)C[C@H]21 [dihydroergotamine]		6833 ng/mL						
CC(C)C[C@H]1C(=O)N2CCC[C@H]2[C@]2(O)O[C@](NC(=O)[C@@H]3C=C4c5cccc6[nH]cc(c56)C[C@H]4N(C)C3)(C(C)C)C(=O)N12 [ergocryptine]	0.59 µM	33 ng/mL	below 100 ng/ml	5%	≥ 2%			
C[C@@H](CO)NC(=O)[C@@H]1C=C2c3cccc4[nH]cc(c34)C[C@H]2N(C)C1 [ergonovine]	0.05 µM	1.6 ng/mL		100%				
CN1C[C@H](C(=O)N[C@]2(C)O[C@@]3(O)[C@@H]4CCCN4C(=O)[C@H](Cc4ccccc4)N3C2=O)C=C2c3cccc4[nH]cc(c34)C[C@H]21 [ergotamine]	0.4 µM							
CC(C)[C@H]1C(=O)N2CCC[C@H]2[C@]2(O)O[C@@](C)(NC(=O)[C@@H]3C=C4c5cccc6[nH]cc(c56)C[C@H]4N(C)C3)C(=O)N12 [ergovaline]	0.15 µM	8 ng/mL		20%		below 100 ng/ml	≥ 2%	
CN1C[C@H](CO)C=C2c3cccc4[nH]cc(c34)C[C@H]21 [lysergol]	3.7 µM	940 ng/mL		4%				less than 1%
